Measurements from patent publication US8420667B2, “Isoquinolinone derivatives as NK3 antagonists” (H. Lundbeck A/S, priority 2008, dated 2013).

Molecular target: T1, NK3 receptor (Homo sapiens, UniProt P29371)
T1 sequence (P29371 1-465): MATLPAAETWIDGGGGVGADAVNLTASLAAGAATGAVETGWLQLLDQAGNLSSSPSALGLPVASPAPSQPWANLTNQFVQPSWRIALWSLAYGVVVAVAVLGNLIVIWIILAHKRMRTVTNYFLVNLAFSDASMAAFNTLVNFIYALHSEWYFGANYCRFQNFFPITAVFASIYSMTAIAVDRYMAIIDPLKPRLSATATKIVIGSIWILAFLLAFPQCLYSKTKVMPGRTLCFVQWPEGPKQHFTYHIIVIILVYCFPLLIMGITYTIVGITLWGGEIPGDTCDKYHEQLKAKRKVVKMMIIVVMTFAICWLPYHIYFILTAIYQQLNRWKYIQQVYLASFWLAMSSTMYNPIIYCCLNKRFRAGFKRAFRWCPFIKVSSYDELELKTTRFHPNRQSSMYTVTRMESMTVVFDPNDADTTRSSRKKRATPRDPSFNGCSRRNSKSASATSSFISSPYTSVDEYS
Assay: NK3 receptor affinity (Ki)
Assay type: binding
Conditions: not given

SMILES | Ki [nM]
CC[C@H](NC(=O)c1c(C)n(-c2ccccc2)c(=O)c2c(Cl)cccc12)c1ccc(Cl)cc1 [Example 1as, 8-Chloro-3-methyl-1-oxo-2-phenyl-1,2-dihydro-isoquinoline-4-carboxylic acid [(S)-1-(4-chloro-phenyl)-propyl]-amide] | 250
CC[C@H](NC(=O)c1c(C)n(-c2ccccc2)c(=O)c2c(Cl)cccc12)c1ccc(F)cc1 [Example 1at, 8-Chloro-3-methyl-1-oxo-2-phenyl-1,2-dihydro-isoquinoline-4-carboxylic acid [(S)-1-(4-fluoro-phenyl)-propyl]-amide] | 180
CC[C@H](NC(=O)c1c(C)n(-c2ccccc2)c(=O)c2c(Cl)cccc12)c1ccccc1F [Example 1au, 8-Chloro-3-methyl-1-oxo-2-phenyl-1,2-dihydro-isoquinoline-4-carboxylic acid [(S)-1-(2-fluoro-phenyl)-propyl]-amide] | 270
CC[C@H](NC(=O)c1c(C)n(-c2ccccc2)c(=O)c2c(Cl)cccc12)c1cccc(Cl)c1 [Example 1av, 8-Chloro-3-methyl-1-oxo-2-phenyl-1,2-dihydro-isoquinoline-4-carboxylic acid [(S)-1-(3-chloro-phenyl)-propyl]-amide] | 39
Cc1c(C(=O)N[C@H](c2cccc(Cl)c2)C2CC2)c2cccc(Cl)c2c(=O)n1-c1ccccc1 [Example 1aw, 8-Chloro-3-methyl-1-oxo-2-phenyl-1,2-dihydro-isoquinoline-4-carboxylic acid [(S)-(3-chloro-phenyl)-cyclopropyl-methyl]-amide] | 59
Cc1c(C(=O)N[C@H](c2ccc(Cl)cc2)C2CC2)c2cccc(Cl)c2c(=O)n1-c1ccccc1 [Example 1ax, 8-Chloro-3-methyl-1-oxo-2-phenyl-1,2-dihydro-isoquinoline-4-carboxylic acid [(S)-(4-chloro-phenyl)-cyclopropyl-methyl]-amide] | 150
CC[C@H](NC(=O)c1c(C)n(-c2ccccc2)c(=O)c2c(Cl)cccc12)c1cccc(F)c1 [Example 1ay, 8-Chloro-3-methyl-1-oxo-2-phenyl-1,2-dihydro-isoquinoline-4-carboxylic acid [(S)-1-(3-fluoro-phenyl)-propyl]-amide] | 47
Cc1c(C(=O)N[C@H](c2ccc(F)cc2)C2CC2)c2cccc(Cl)c2c(=O)n1-c1ccccc1 [Example 1ba, 8-Chloro-3-methyl-1-oxo-2-phenyl-1,2-dihydro-isoquinoline-4-carboxylic acid [(S)-cyclopropyl-(4-fluoro-phenyl)-methyl]-amide] | 55
CC[C@H](NC(=O)c1c(C)n(-c2ccccc2)c(=O)c2c(Cl)cccc12)c1ccccc1Cl [Example 1bb, 8-Chloro-3-methyl-1-oxo-2-phenyl-1,2-dihydro-isoquinoline-4-carboxylic acid [(S)-1-(2-chloro-phenyl)-propyl]-amide] | 240
Cc1c(C(=O)N[C@H](c2ccccc2Cl)C2CC2)c2cccc(Cl)c2c(=O)n1-c1ccccc1 [Example 1bd, 8-Chloro-3-methyl-1-oxo-2-phenyl-1,2-dihydro-isoquinoline-4-carboxylic acid [(S)-(2-chloro-phenyl)-cyclopropyl-methyl]-amide] | 49
Cc1c(C(=O)N[C@H](c2ccccc2F)C2CC2)c2cccc(Cl)c2c(=O)n1-c1ccccc1 [Example 1be, 8-Chloro-3-methyl-1-oxo-2-phenyl-1,2-dihydro-isoquinoline-4-carboxylic acid [(S)-cyclopropyl-(2-fluoro-phenyl)-methyl]-amide] | 45
Cc1c(C(=O)N[C@H](c2cccc(F)c2)C2CCC2)c2cccc(Cl)c2c(=O)n1-c1ccccc1 [Example 1bh, 8-Chloro-3-methyl-1-oxo-2-phenyl-1,2-dihydro-isoquinoline-4-carboxylic acid [(S)-cyclobutyl-(3-fluoro-phenyl)-methyl]-amide] | 31
Cc1c(C(=O)N[C@H](c2ccc(F)cc2)C2CCC2)c2cccc(Cl)c2c(=O)n1-c1ccccc1 [Example 1bi, 8-Chloro-3-methyl-1-oxo-2-phenyl-1,2-dihydro-isoquinoline-4-carboxylic acid [(S)-cyclobutyl-(4-fluoro-phenyl)-methyl]-amide] | 31
Cc1c(C(=O)N[C@@H](c2cccc(F)c2)C2CC2)c2cccc(Cl)c2c(=O)n1-c1ccccc1 [Example 1bl, 8-Chloro-3-methyl-1-oxo-2-phenyl-1,2-dihydro-isoquinoline-4-carboxylic acid [(R)-cyclopropyl-(3-fluoro-phenyl)-methyl]-amide] | 810
Cc1c(C(=O)NC(c2ccccc2F)C2CCC2)c2cccc(Cl)c2c(=O)n1-c1ccccc1 (stereo not drawn) [Example 1bo, 8-Chloro-3-methyl-1-oxo-2-phenyl-1,2-dihydro-isoquinoline-4-carboxylic acid [cyclobutyl-(2-fluoro-phenyl)-methyl]-amide] | 150
Cc1c(C(=O)N[C@H](c2cccc(F)c2)C2CC2)c2cccc(F)c2c(=O)n1-c1ccccc1 [Example 7e, 8-Fluoro-3-methyl-1-oxo-2-phenyl-1,2-dihydro-isoquinoline-4-carboxylic acid [(S)-cyclopropyl-(3-fluoro-phenyl)-methyl]-amide] | 15
Cc1c(C(=O)N[C@H](c2cccc(F)c2)C2CCC2)c2cccc(F)c2c(=O)n1-c1ccccc1 [Example 7h, 8-Fluoro-3-methyl-1-oxo-2-phenyl-1,2-dihydro-isoquinoline-4-carboxylic acid [(S)-cyclobutyl-(3-fluoro-phenyl)-methyl]-amide] | 10

Molecular target: T1, NK3 receptor
Assay: not given
Conditions: clinical trials; cited from earlier work

SMILES | effect on cognitive behaviour of schizophrenics
CC[C@H](NC(=O)c1c(O)c(-c2ccccc2)nc2ccccc12)c1ccccc1 [talnetant] | ameliorate the cognitive behaviour of schizophrenics
